Data set [1] can be described thus: Apparent permeability across apical to basolateral side in RRCK cells at 1 uM after 2 hrs by LC/MS-MS analysis. The conditions noted are these: dog, MDCK. Format: ADME, cell-based, Canis lupus familiaris, MDCKII-LE.
A short description of data set [2]: Volume of distribution at steady state in Sprague-Dawley rat at 1 mg/kg, iv via single bolus administration. Format: ADME, organism-based. As to conditions: in vivo, read-out: Vdss.
Data set [3] in a line: Volume of distribution at steady state in cynomolgus monkey at 1 mg/kg, iv via single bolus administration. As to conditions: in vivo, read-out: Vdss. Type of data set: ADME, organism-based, Macaca fascicularis.
The nature of data set [4]: Oral bioavailability in Sprague-Dawley rat at 25 mg/kg. Format: ADME, organism-based. As to conditions: in vivo.
A short description of data set [5]: Oral bioavailability cynomolgus monkey […] at 30 mg/kg. Type of data set: ADME, organism-based, Macaca fascicularis. The conditions noted are these: in vivo.
In data set [6] the test system is Plasma. Description: Plasma concentration in human. Type of data set: ADME, cell-free.
Data set [7] can be described thus: Ratio of free AUC (0 to 4 hrs) in Sprague-Dawley rat brain to plasma at 0.32 to 1 mg/kg, sc. Type of data set: ADME, organism-based.
Data set [8] is described as follows: Ratio of unbound drug level in cynomolgus monkey brain to plasma at 600 mg/kg, po measured 7.65 hrs post dose on day 1. Format: ADME, organism-based, Macaca fascicularis. The conditions noted are these: read-out: K(p,uu,brain).
Data set [9] is described as follows: Volume of distribution at steady state in 6 MPTP-treated dyskinetic PD-LID rhesus monkey at 2 mg/kg administered BID. Format: ADME, organism-based, Macaca mulatta. The conditions noted are these: in vivo, read-out: Vdss.
Data set [10] in a line: Bioavailability in 6 MPTP-treated dyskinetic PD-LID rhesus monkey model at 2 mg/kg administered BID. Type of data set: ADME, organism-based, Macaca mulatta. As to conditions: in vivo.
Data set [11] can be described thus: AUC (0 to 24 hrs) at steady state in Crl:CD(SD) rat at 50 mg/kg/day, administered via oral gavage for 14 consecutive days measured on day 13. Type of data set: ADME, organism-based. Set-up: dose 50 mg/kg/day, time < 24 hr, route oral. As to conditions: in vivo.
Data set [12] in a line: AUC (0 to 24 hrs) at steady state in Crl:CD(SD) rat at 150 mg/kg/day, administered via oral gavage for 14 consecutive days measured on day 13. Type of data set: ADME, organism-based. More on the design: time < 24 hr, dose 150 mg/kg/day, route oral. The conditions noted are these: in vivo.
Data set [13] can be described thus: AUC (0 to 24 hrs) at steady state in Crl:CD(SD) rat at 500 mg/kg/day, administered via oral gavage for 14 consecutive days measured on day 13. Type of data set: ADME, organism-based. More on the design: dose 500 mg/kg/day, time < 24 hr, route oral. The conditions noted are these: in vivo.
A short description of data set [14]: AUC (0 to 24 hrs) at steady state in cynomolgus monkey at 50 mg/kg/day, administered via oral gavage for 14 consecutive days measured on day 13. Format: ADME, organism-based, Macaca fascicularis. More on the design: time < 24 hr, dose 50 mg/kg/day, route oral. The conditions noted are these: in vivo.
Data set [15] can be described thus: AUC (0 to 24 hrs) at steady state in cynomolgus monkey at 150 mg/kg/day, administered via oral gavage for 14 consecutive days measured on day 13. More on the design: time < 24 hr, dose 150 mg/kg/day, route oral. The conditions noted are these: in vivo. Format: ADME, organism-based, Macaca fascicularis.
The nature of data set [16]: AUC (0 to 24 hrs) at steady state in cynomolgus monkey at 600 mg/kg/day, administered via oral gavage for 14 consecutive days measured on day 13. Format: ADME, organism-based, Macaca fascicularis. More on the design: dose 600 mg/kg/day, time < 24 hr, route oral. The conditions noted are these: in vivo.
The test system of data set [17] is Plasma. Description: Drug metabolism in Crl:CD(SD) rat plasma assessed as metabolite formation at 150 mg/kg, administered via oral gavage measured on day 1 by UV-LC-MS/MS analysis. Format: ADME, organism-based. The conditions noted are these: in vivo.
The subject of data set [18] is Plasma. The data set is described as follows: Drug metabolism in cynomolgus monkey plasma assessed as monohydroxylated metabolite formation at 150 mg/kg, administered via oral gavage measured on day 12 by UV-LC-MS/MS analysis. Format: ADME, organism-based, Macaca fascicularis. The conditions noted are these: in vivo.
Data set [19] concerns Plasma. Description: Drug metabolism in cynomolgus monkey plasma assessed as N-oxygenated metabolite formation at 150 mg/kg, administered via oral gavage measured on day 12 by UV-LC-MS/MS analysis. Format: ADME, organism-based, Macaca fascicularis. As to conditions: in vivo.
Data set [20] relates to Plasma. The data set is described as follows: Drug metabolism in cynomolgus monkey plasma assessed as O-dealkylated metabolite formation at 150 mg/kg, administered via oral gavage measured on day 12 by UV-LC-MS/MS analysis. As to conditions: in vivo. Type of data set: ADME, organism-based, Macaca fascicularis.
The subject of data set [21] is Plasma. Description: Drug metabolism in cynomolgus monkey plasma assessed as glucuronidated metabolite formation at 150 mg/kg, administered via oral gavage measured on day 12 by UV-LC-MS/MS analysis. As to conditions: in vivo. Type of data set: ADME, organism-based, Macaca fascicularis.
In data set [22] the test system is Plasma. Description: Drug metabolism in cynomolgus monkey plasma assessed as metabolite formation at 150 mg/kg, administered via oral gavage measured on day 1 by UV-LC-MS/MS analysis. Type of data set: ADME, organism-based, Macaca fascicularis. The conditions noted are these: in vivo.

Each structure is given as a SMILES string.

In general, Papp A→B refers to the apparent permeability from the apical to the basolateral side of a cell layer. Regarding `O=c1cc(SCc2ccccn2)nc2ccccn12`, the Papp A→B at 2 h, 1 µM in data set [1] came out at 26 ×10⁻⁶ cm/s.
As usually defined, the bioavailability is the share of a dose that reaches the circulation, judged against a reference dose that is usually intravenous. For orientation: AUC means concentration integrated over time. `CC(C)(C)C[C@@H]1COCc2nc(OCc3ccccn3)cc(=O)n21`: the apical-to-basolateral permeability (Papp A→B) at 2 h, 1 µM in [1] worked out at 29 ×10⁻⁶ cm/s. Moreover, the Vd in data set [2] stood at 1.29 L/kg; in [3], 1.24 L/kg; in [9], 1 L/kg. Also, the values for the bioavailability in [4], in data set [5] and in data set [10] were 20%, 11% and 91%, respectively. In data set [6], the Cp is 31 ng/mL. The Kp uu in data set [7] amounted to 1.22. For the same compound, the Kp uu at 7.65 h in [8] worked out at 0.89. In addition, the AUC at 24 h in data set [11] is 23200 ng·h/mL; in [12], 117000 ng·h/mL; in data set [13], 313000 ng·h/mL; in data set [14] it was 3680 ng·h/mL; in data set [15] it was 45400 ng·h/mL; in data set [16], 41500 ng·h/mL. The Drug metabolism entry in [17], in [18], in [19], in data set [20], in data set [21] and in data set [22] was “Metabolite_Detected” each time.
As to `N#Cc1cccc(COc2cc(=O)n3c(n2)COC[C@H]3Cc2ccccc2)c1`, in data set [1], the Papp A→B at 2 h, 1 µM came to 26 ×10⁻⁶ cm/s.
For the compound `O=c1cc(OCc2cccc(Cl)c2)nc2n1[C@H](Cc1ccccc1)COC2`, the Papp A→B at 2 h, 1 µM in data set [1] was found to be 4 ×10⁻⁶ cm/s.
Take `O=c1cc(OCCC2CC2)nc2n1[C@H](Cc1ccccc1)COC2`: the Papp A→B at 2 h, 1 µM in data set [1] is 22 ×10⁻⁶ cm/s.
`Cc1cccc(COc2cc(=O)n3c(n2)COC[C@H]3Cc2ccccc2)n1`: the Papp A→B at 2 h, 1 µM in data set [1] was determined as 22 ×10⁻⁶ cm/s.
Regarding `O=c1cc(OCc2cccc(Cl)c2)nc2ccc(Oc3cccnc3)cn12`, in [1], the Papp A→B at 2 h, 1 µM came to 7 ×10⁻⁶ cm/s.
With `Cc1csc(COc2cc(=O)n3c(n2)COC[C@H]3Cc2ccccc2)n1`, in [1], the Papp A→B at 2 h, 1 µM was 26 ×10⁻⁶ cm/s.
Still for that read-out and setting: to `O=c1cc(OCc2cccc(Cl)c2)nc2n1CCCC2` belongs 26 ×10⁻⁶ cm/s.
With `O=c1cc(OCc2cccc(Cl)c2)nc2ccccn12`, in data set [1], the Papp A→B at 2 h, 1 µM worked out at 16 ×10⁻⁶ cm/s.
Consider `CC(C)(C)C[C@@H]1COCc2nc(OCc3cccc(C#N)c3)cc(=O)n21`, for which the Papp A→B at 2 h, 1 µM in data set [1] came out at 25 ×10⁻⁶ cm/s.
As for `CC(C)C[C@@H]1COCc2nc(OCc3cccc(C#N)c3)cc(=O)n21`, the Papp A→B at 2 h, 1 µM in data set [1] came to 28 ×10⁻⁶ cm/s. Further, the values for the Vd in data set [2] and in data set [3] were 2.14 L/kg and 2.23 L/kg, respectively. The figures for the bioavailability in [4] and in data set [5] were 62% and 43%, respectively. Besides, the Kp uu in [7] is 2.19.
Consider `O=c1cc(OCc2cccc(Cl)c2)nc2n1[C@@H](Cc1ccccc1)COC2`, for which, in data set [1], the Papp A→B at 2 h, 1 µM stood at 4 ×10⁻⁶ cm/s.
`Cc1cccc(COc2cc(=O)n3cc(Oc4cccnc4)ccc3n2)n1`: the Papp A→B at 2 h, 1 µM in data set [1] worked out at 24 ×10⁻⁶ cm/s.
`CC(C)C[C@@H]1COCc2nc(OCc3ccccn3)cc(=O)n21`: the Papp A→B at 2 h, 1 µM in data set [1] amounted to 39 ×10⁻⁶ cm/s.
In the case of `O=c1cc(OCc2ccccn2)nc2n1[C@H](Cc1ccccc1)COC2`, the Papp A→B at 2 h, 1 µM in [1] stood at 28 ×10⁻⁶ cm/s.
As for `O=c1cc(OCc2cccc(Cl)c2)nc2n1CCOC2`, the Papp A→B at 2 h, 1 µM in data set [1] was 31 ×10⁻⁶ cm/s.
